# Measurements taken from patent publication US5462958A, “Benzene derivatives and method of treating arteriosclerosis with benzene derivatives” (Eisai Co., Ltd., priority 1992, dated 1995).
# How the values were obtained:
# Format in all cases: biochemical
# ACAT [1] = experiment: ACAT-inhibitory activity in vitro, supernatant of homogenate of the epithelial cell (CaCO2) resulting from human colon cancer (acylation of cholesterol with radiolabeled oleoyl-CoA)
# Protocol: (§1) Representative compounds according to the present invention were examined for ACAT-inhibitory activity according to the in-vitro test method described in Journal of Lipid Research, vol. 24, pp. 1049-1059 (1983) by F. J. Field and S. N. Mathur.
# (§2) The inhibitory activity of a test compound against the acylation, which was based on the inhibitory activity of the test compound against the enzyme which catalyzes the acylation of cholesterol with oleoyl-CoA, was evaluated by using one of the supernatant of homogenate of the arterial wall of a rabbit, the microsome of the small intestine of a rat and the supernatant of homogenate of the epithelial cell (CaCO2) resulting from human colon cancer as an enzyme source, determining the amount of a radioisotope-labeled cholesterol oleate made from a radiolabeled oleoyl-CoA and (free) cholesterol and comparing the result of the case when a test compound was added with the result of control (the case when no test compound was added).
# (§3) The data which are given in Table 1 are IC50 values, i.e., the concentrations of test compounds necessary for inhibiting 50% of the enzymatic activity of ACAT.
# ACAT [2] = biological target: T1, ACAT (Rattus norvegicus, UniProt Q7TQM4); experiment: ACAT-inhibitory activity in vitro, microsome of the small intestine of a rat (acylation of cholesterol with radiolabeled oleoyl-CoA)
# T1 construct: the microsome of the small intestine of a rat; from tissue; host or cells: microsomes of rat small intestine
# T1 sequence (Q7TQM4 1-524): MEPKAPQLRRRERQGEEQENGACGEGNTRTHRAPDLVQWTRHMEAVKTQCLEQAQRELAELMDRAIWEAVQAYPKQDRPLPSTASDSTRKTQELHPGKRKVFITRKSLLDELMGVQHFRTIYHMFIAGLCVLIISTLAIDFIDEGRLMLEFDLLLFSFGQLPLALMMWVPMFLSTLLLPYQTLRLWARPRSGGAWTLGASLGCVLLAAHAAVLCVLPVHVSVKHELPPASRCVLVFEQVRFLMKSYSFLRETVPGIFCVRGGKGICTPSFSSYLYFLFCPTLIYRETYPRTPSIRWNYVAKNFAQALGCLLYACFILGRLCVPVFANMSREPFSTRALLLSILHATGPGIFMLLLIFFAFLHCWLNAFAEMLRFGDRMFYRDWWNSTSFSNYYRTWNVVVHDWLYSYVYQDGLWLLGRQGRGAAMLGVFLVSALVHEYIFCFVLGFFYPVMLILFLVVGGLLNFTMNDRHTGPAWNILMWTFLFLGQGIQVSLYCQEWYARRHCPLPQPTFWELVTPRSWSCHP
# Protocol: as §1, §2, §3
# ACAT [3] = biological target: T2, ACAT (Oryctolagus cuniculus, UniProt A0A5F9CPP4); experiment: ACAT-inhibitory activity in vitro, supernatant of homogenate of the arterial wall of a rabbit (acylation of cholesterol with radiolabeled oleoyl-CoA)
# T2 construct: supernatant of homogenate of the arterial wall of a rabbit; from tissue; host or cells: supernatant of homogenate of rabbit arterial wall
# T2 sequence (A0A5F9CPP4 1-555): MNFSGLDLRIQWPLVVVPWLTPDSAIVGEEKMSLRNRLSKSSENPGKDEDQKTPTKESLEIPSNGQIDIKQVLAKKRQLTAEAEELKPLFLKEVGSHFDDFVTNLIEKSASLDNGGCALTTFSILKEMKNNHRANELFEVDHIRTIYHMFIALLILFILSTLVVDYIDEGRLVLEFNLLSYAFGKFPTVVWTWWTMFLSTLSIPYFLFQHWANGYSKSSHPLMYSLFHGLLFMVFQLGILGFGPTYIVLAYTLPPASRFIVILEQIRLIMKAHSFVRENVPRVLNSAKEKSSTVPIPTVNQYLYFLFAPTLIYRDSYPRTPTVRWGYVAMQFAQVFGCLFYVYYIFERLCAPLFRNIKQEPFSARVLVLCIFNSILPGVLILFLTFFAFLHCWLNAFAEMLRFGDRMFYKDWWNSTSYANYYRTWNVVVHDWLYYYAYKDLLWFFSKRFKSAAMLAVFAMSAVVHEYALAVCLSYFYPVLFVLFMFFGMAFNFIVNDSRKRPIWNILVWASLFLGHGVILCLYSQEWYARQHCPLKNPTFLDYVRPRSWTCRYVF
# Protocol: as §1, §2, §3
compound,measurement,setting,value
"CCCCNC(=O)Nc1c(C)cccc1OCCCn1cnc(-c2ccccc2)c1C(C)O (centres unmarked) [Example 5, N-Butyl-N'-[2-[3-[5-(1-hydroxyethyl)-4-phenyl-1H-imidazol-1-yl]propoxy]-6-methylphenyl]urea]",IC50,ACAT [1],170 nM
same,IC50,ACAT [2],150 nM
same,IC50,ACAT [3],850 nM
"CCCCNC(=O)Nc1c(C)cc(O)cc1OCCCn1cnc(-c2ccccc2)c1CC [Example 1, N-Butyl-N'-[2-[3-(5-ethyl-4-phenyl-1H-imidazol-1-yl)propoxy]-4-hydroxy-6-methylphenyl]urea]",IC50,ACAT [3],580 nM
"CCc1c(-c2ccccc2)ncn1CCCOc1cccc(C)c1NC(=O)NCCCCO [Example 6, N-(4-Hydroxybutyl)-N'-[2-[3-(5-ethyl-4-phenyl-1H-imidazol-1-yl)propoxy]-6-methylphenyl]urea]",IC50,ACAT [3],3800 nM
"CCCCNC(=O)Nc1c(C)cccc1OCCCn1cnc(-c2ccc(O)cc2)c1CC [Example 2, N-Butyl-N'-[2-[3-[5-ethyl-4-(4-hydroxyphenyl)-1H-imidazol-1-yl]propoxy]-6-methylphenyl]urea]",IC50,ACAT [1],1000 nM
same,IC50,ACAT [3],6900 nM
"CCCCNC(=O)Nc1c(OCCCn2cnc(-c3ccccc3)c2CC)ccc(O)c1C [Example 11, N-Butyl-N'-[2-[3-(5-ethyl-4-phenyl-1H-imidazol-1-yl)propoxy]-5-hydroxy-6-methylphenyl]urea]",IC50,ACAT [1],100 nM
same,IC50,ACAT [2],68 nM
same,IC50,ACAT [3],260 nM
"CCc1c(-c2ccccc2)ncn1CCCOc1cccc(C)c1NC(=O)NCCC(C)O (centres unmarked) [Example 10, N-(3-Hydroxybutyl)-N'-[2-[3-(5-ethyl-4-phenyl-1H-imidazol-1-yl)propoxy]-6-methylphenyl]urea]",IC50,ACAT [1],480 nM
same,IC50,ACAT [2],4200 nM
same,IC50,ACAT [3],1000 nM
"CCc1c(-c2ccccc2)ncn1CCCOc1cccc(C)c1NC(N)=O [Example 8, N-[2-[3-(5-Ethyl-4-phenyl-1H-imidazol-1-yl)propoxy]-6-methylphenyl]urea]",IC50,ACAT [1],3500 nM
"CCCCNC(=O)Nc1c(CO)cccc1OCCCn1cnc(-c2ccccc2)c1CC [Example 9, N-Butyl-N'-[2-[3-(5-ethyl-4-phenyl-1H-imidazol-1-yl)propoxy]-6-hydroxymethylphenyl]urea]",IC50,ACAT [1],320 nM
same,IC50,ACAT [2],84 nM
same,IC50,ACAT [3],700 nM
